Data on two molecules can be found in patent US20060189539A1, “Novel GnRH analogues with antitumour effects and pharmaceutical compositions thereof” (priority 1994, published 2006).

In test [1] the test system is MDA-MB-231 human mammary carcinoma cell line. Description: Inhibition of colony formation (dose-survival), Example 48. The format is cell-based. From the text:
(§1) MCF-7 human mammary carcinoma cell line was stabilized in 1973 by Soule et al. from the pleural fluid of a patient suffering from mammary carcinoma. MDA-MB-231 human mammary carcinoma cell line was isolated and stabilized by Cailleau et al. in 1974 similarly from pleural fluid. Both cell lines grow in monolayer. MCF-7 and MDA-MB-231 human mammary carcinoma cell lines are maintained in plastic flasks (Greiner), in Dulbecco-modified Eagle-MEM (DMEM, GIBCO) liquid nutrient medium containing 10% of fetal calf serum. MCF-7 cell line is estradiol receptor (ER)-positive containing proteins specifically binding GnRH. Thus, it represents, a useful model system for investigating the direct effect of GnRH mediated by the GnRH receptor. Being ER-negative and GnRH receptor-positive, MDA-MB-231 cell line is similarly suitable to study the direct effect of GnRH. PC3 human prostate carcinoma cell line was stabilized in cell culture by Kaighn et al. in 1979. The cells are of epithelial type and form compact colonies in clonogenic assays. The Ishikawa cell line originates from human endometrial adenocarcinoma [M. Nishida et al.: Acta Obstet. Gynecol. Jpn. 37, 1103-1111 (1985)], it is epithelial in its character and contains steroid-as well as GnRH receptors.
(§2) The examination gives accurate information about the cell-damaging effect of the substance tested as a function of varying doses. The treatment was carried out once; the colonies formed from the surviving cells were counted after 8-12 days. […] A part of the arrested cells again entered the cycle, an other part of them might be destroyed (apoptosis). […] In the case of a dose-response investigation, colonies containing less than 15 cells were not counted. 300 cells were put into each Petri dishes of 3.5 cm in diameter. The treatment was once carried out 24 hours after setting, then the colonies formed were counted after 8-12 days. The cells were treated once after 24 hours with 1-50 μM of various GnRH analogues of Examples above or with 1-50 μM of GnRH-III, respectively. The percentages of inhibition obtained on MCF-7, MDA-MB-231, PC3 and Ishikawa cells, respectively, together with the dose of the active agent used are shown in Table VIII.

In test [2] the test system is MCF-7 human mammary carcinoma cell line. The test is described as above. Particulars: 50 μM. The class given is cell-based. The text has this:
MCF-7 human mammary carcinoma cell line was stabilized in 1973 by Soule et al. from the pleural fluid of a patient suffering from mammary carcinoma. MDA-MB-231 human mammary carcinoma cell line was isolated and stabilized by Cailleau et al. in 1974 similarly from pleural fluid. Both cell lines grow in monolayer. […] MCF-7 cell line is estradiol receptor (ER)-positive containing proteins specifically binding GnRH. Thus, it represents, a useful model system for investigating the direct effect of GnRH mediated by the GnRH receptor. Being ER-negative and GnRH receptor-positive, MDA-MB-231 cell line is similarly suitable to study the direct effect of GnRH. PC3 human prostate carcinoma cell line was stabilized in cell culture by Kaighn et al. in 1979. The cells are of epithelial type and form compact colonies in clonogenic assays. The Ishikawa cell line originates from human endometrial adenocarcinoma [M. Nishida et al.: Acta Obstet. Gynecol. Jpn. 37, 1103-1111 (1985)], it is epithelial in its character and contains steroid-as well as GnRH receptors. The examination gives accurate information about the cell-damaging effect of the substance tested as a function of varying doses. The treatment was carried out once; the colonies formed from the surviving cells were counted after 8-12 days. […] A part of the arrested cells again entered the cycle, an other part of them might be destroyed (apoptosis). […] The treatment was once carried out 24 hours after setting, then the colonies formed were counted after 8-12 days. The cells were treated once after 24 hours with 1-50 μM of various GnRH analogues of Examples above or with 1-50 μM of GnRH-III, respectively. The percentages of inhibition obtained on MCF-7, MDA-MB-231, PC3 and Ishikawa cells, respectively, together with the dose of the active agent used are shown in Table VIII.

The test system of test [3] is MDA-MB-231 human mammary carcinoma cell line. The experiment in a line: Inhibition of colony formation (dose-survival), Example 18. The class given is cell-based. Particulars: 50 μM. From the text:
(§3) Human cell lines used in in vitro experiments. MCF-7 human mammary tumour cell line was stabilized in 1973 by Soule et al. from the pleural fluid of mammary carcinoma patients. The cells grow in monolayer and are epithelial in their character. MDA-MB-231 human mammary carcinoma cell line was isolated and stabilized in 1974 by Cailleau et al. similarly from pleural fluid. These cells also grow in monolayer. PC3 human prostate carcinoma cell line was stabilized 20 in 1979 in cell culture by Kaighn et al.; the cells are of simple epithelium type and form compact colonies in clonogenic assays. Ishikawa cell line originated from adenocarcinoma of human endometrium [Nishida et al.: Obstet. Gynecol. Jpn, 37, 25 1103-1111 (1985)], has epithelial character and contains steroid as well as GnRH receptors. Human tumour cell lines are maintained in plastic flasks (Greiner) in Dulbecco-6modified Eagle-MEM (DMEM GIBCO) nutritive medium. The medium used herein contained 10% of fetal calf serum (FCS).
(§4) In the case of cytostatics the cell-damaging effect is not cell-specific. […] One part of the arrested cells again go into the cycle, the other part may perish (apoptosis). […] The investigations were carried out on MCF-7 and MDA-MB-231 human mammary carcinoma cell lines, PC3 human prostate 15 carcinoma cell line and Ishikawa human endometrium carcinoma cell line. Threehundred cells were set into Petri dishes of 3.5 cm in diameter each. The treatment was carried out once, 24 hours following the explantation, then the colonies formed were counted after 9 to 12 days.

Test [4] relates to MCF-7 human mammary carcinoma cell line. The description is as above. The format is cell-based. Particulars: 50 μM.
Excerpt: as §3, §4

Test [5] deals with Ishikawa human endometrium carcinoma cell line. The test is described as above. The class given is cell-based. Conditions: 50 μM.
Excerpt: as §3, §4

For test [6], the system named is PC3 human prostate carcinoma cell line. The test is described as above. The class given is cell-based.
Excerpt: as §3, §4

A further test relates to human tumor cell lines. The experiment in a line: Colony formation, Example 48, comparison with control D-Trp6-hGnRH. The class given is cell-based. Conditions: data of Table VIII. On the procedure: as §2
In these studies the D-Trp6-hGnRH analogue (Sigma Co.) commonly used in the tumour therapy was employed as control.

Test [7] concerns PC3 prostate tumour cell culture. Description: Inhibition of colony formation (dose-survival), Example 48. The class given is cell-based, human.
Excerpt: as §1, §2

The subject of test [8] is Ishikawa endometrium tumour cell culture. The test is described as above. The class given is cell-based, human. Particulars: 50 μM.
Excerpt: as §1, §2

Test [9] has as its system PC3 human prostate carcinoma cells. The experiment in a line: In vitro inhibition of cell proliferation (cell count), Example 19. The class given is cell-based. Particulars: 30 μM of active substance, conjugate, treated once. As for the experimental part:
The procedure of treatment was as follows. After trypsinization the cells, 400,000 cells of MCF-7, MDA-MB-231 human mammary carcinoma, PC3 human prostate carcinoma or Ishikawa human endometrium tumour each were passed into Petri dishes of 10 cm in diameter. Starting from the day following transfer, the cells were treated with the substances to be tested in solution prepared with the nutrient medium during the exponential growth phase. […]

In test [10] the test system is Ishikawa human endometrium tumour cells. Particulars: 30 μM of active substance, conjugate, treated once. The text has this:
The procedure of treatment was as follows. After trypsinization the cells, 400,000 cells of MCF-7, MDA-MB-231 human mammary carcinoma, PC3 human prostate carcinoma or Ishikawa human endometrium tumour each were passed into Petri dishes of 10 cm in diameter. […]

For `NCCCC[C@H](NC(=O)[C@H](Cc1c[nH]c2ccccc12)NC(=O)[C@H](Cc1c[nH]cn1)NC(=O)[C@@H]1CCC(=O)N1)C(=O)N[C@@H](Cc1c[nH]cn1)C(=O)N[C@@H](CC(=O)O)C(=O)N[C@@H](Cc1c[nH]c2ccccc12)C(=O)N[C@@H](CCCCN)C(=O)N1CCC[C@H]1C(=O)NCC(N)=O` [Compound 6, Lys^4-GnRH-III], the “% Inhibition of colony formation” value turned out to be 18% in test [1] (10 μM); 35% in test [1] (50 μM); 40% in [2]; 35% in [3]; 40% in [4]; 21% in test [5]. The results for the “% Inhibition of colony formation” value in [6] (50 μM), in [7] (50 μM) and in [8] were “did not show any inhibition”, 0% and 21%, respectively. Further, in the test on human tumor cell lines, the “Inhibitory effect on colony formation compared with control D-Trp6-hGnRH” value is given as “exceeded the inhibitory effect of control”. Also, in test [7] (within the dose range used (1-50 μM)), the “Effect on colony-forming ability” value was “did not influence”.

As to “D-Phe2,D-Trp3,{D-Lys[n-poly(N-vinylpyrrolidone-co-maleic acid)-Gly-Phe-Leu-Gly-]}6.-GNRH [P-GFLG-1004]”, the results for the “% Inhibition of colony formation” value in test [2], in test [5] and in test [6] (30 μM) were 44%, 46% and 100%, respectively. Also, the “% Inhibition of cell division” value in test [9] is 35%; in test [10], 20%.
